Reference: publication PMC7472354, “Enhanced Antimicrobial Activity of N-Terminal Derivatives of a Novel Brevinin-1 Peptide from The Skin Secretion of Odorrana schmackeri” (Toxins, 2020)
≈ marks a conversion by molar mass, not a printed value. Where a SMILES comes first, the peptide text is derived from it.

Key:
[1] = tested on: Staphylococcus aureus (NCTC 10788); assay type: cell-based
Protocol: (§1) The minimal inhibitory concentrations (MICs) and minimum bactericidal concentrations (MBCs) were evaluated to determine the antimicrobial activity of synthetic peptides. The microorganisms employed in the study are two kinds of Gram-negative bacteria, Escherichia coli (NCTC 10418) and Pseudomonas aeruginosa (ATCC 27853), three kinds of Gram-positive bacteria, Staphylococcus aureus (NCTC 10788), Methicillin-resistant Staphylococcus aureus (MRSA, ATCC 12493) and Enterococcus faecalis (NCTC 12697) and a yeast, Candida albicans (NCPF 1467), as indicated previously. […] The sterilised broth medium was used as the positive control and the microorganism cultured in the medium only was treated as the negative control. […] The MBC results were defined as the lowest bactericidal concentrations of peptide. The antimicrobial activity of peptides was tested by monitoring the absorbance at 550 nm using an ELISA plate reader (Biolise BioTek EL808, Winooski, VT, USA).

[2] = tested on: Enterococcus faecalis (NCTC 12697); assay type: cell-based
Protocol: as §1

[3] = tested on: Candida albicans (NCPF 1467); assay type: cell-based
Protocol: as §1

[4] = tested on: Pseudomonas aeruginosa (ATCC 27853); assay type: cell-based
Protocol: as §1

[5] = tested on: Methicillin-resistant Staphylococcus aureus (MRSA, ATCC 12493); assay type: cell-based
Protocol: as §1

[6] = tested on: Escherichia coli (NCTC 10418); assay type: cell-based
Protocol: as §1

horse red blood cells = assay: Haemolysis assay and therapeutic index; conditions: 2% horse red blood cells in PBS, 2 h, 37 °C, absorbance 570 nm; best-fitted curve
Protocol: The haemolytic activity of synthetic peptides was determined using the horse red blood cells that were extracted from the de-fibroblast whole horse blood (TCS Biosciences Ltd. Buckingham, UK). […] Briefly, the red blood cells were harvested and washed using PBS until all broken red blood cells were removed. Then, a 2% cell suspension was prepared using PBS. The peptide concentrations were set as antimicrobial activity assay and mixed with the red blood cells in the microcentrifuge tubes. After a 2 h-incubation at 37 °C, the tubes were centrifuged and the suspension was transferred into a clear 96 well plate. The absorbance of released haemoglobin in the suspension was detected at 570 nm by a plate reader. Besides, the red blood cells treated with PBS and 1% Triton X-100 were used as the negative and positive controls, respectively. […] The therapeutic index (TI) was further determined as below:(1) TI=HC50/product of n MICsn,

MIC ([1]; NCTC 10788, 24 h): 256 µM (≈ 314 µg/mL)
MIC ([2]; NCTC 12697, 24 h): > 512 µM
MIC ([3]; NCPF 1467, 24 h): 256 µM (≈ 314 µg/mL)
MIC ([4]; ATCC 27853, 24 h): > 512 µM
MIC ([5]; ATCC 12493, 24 h): > 512 µM
MIC ([6]; NCTC 10418, 24 h): > 512 µM
SMILES: CC[C@H](C)[C@H](NC(=O)[C@H](CCCCN)NC(=O)[C@@H]1CCCN1C(=O)[C@H](CC(C)C)NC(=O)[C@@H](N)Cc1ccccc1)C(=O)N[C@@H](CC(C)C)C(=O)N[C@@H](CCCCN)C(=O)N[C@H](C(=O)N[C@@H](C)C(=O)N[C@@H](C)C(=O)N[C@@H](CCCCN)C(N)=O)C(C)C [OSc] (H-FLPKILKVAAK-NH2)
MBC ([1]; NCTC 10788, 18 h): > 512 µM
MBC ([2]; NCTC 12697, 18 h): > 512 µM
MBC ([3]; NCPF 1467, 18 h): > 512 µM
MBC ([4]; ATCC 27853, 18 h): > 512 µM
MBC ([5]; ATCC 12493, 18 h): > 512 µM
MBC ([6]; NCTC 10418, 18 h): > 512 µM
HC50 (concentration causing 50% haemolysis of the red blood cells) (horse red blood cells): >512 µM
